Experimental findings from patent US7288630B2, “Potassium channel KCNQ5 and sequences encoding the same” (NeuroSearch A/S, priority 1999, dated 2007) are described below.

In the experiment the target is T1, KCNQ5 (Homo sapiens, UniProt Q9NR82).
T1 construct: A complete cDNA was assembled and cloned into the oocyte expression vector PTLN; expressed in transfected cells; host or cells: Xenopus oocytes injected with cRNA from pTLN
The experiment in a line: Two-electrode voltage clamp of KCNQ5 homomers expressed in Xenopus oocytes. It counts as cell-based. As to the method:
KCNQ5 was expressed in Xenopus oocytes and its activity was investigated by two-electrode voltage clamping.
After linearization of the KCNQ5-containing pTLN vector with Hpal, capped cRNA was transcribed in vitro using the mMessage mMachine cRNA synthesis kit (Ambion). Usually 5-15 ng of cRNA were injected into Xenopus oocytes previously isolated by manual defolliculation and short collagenase treatment. In co-expression experiments cRNAs were injected at a 1:1 ratio. Oocytes were kept at 17° C. in modified Barth's solution (90 mM NaCl, 1 mM KCl, 0.41 mM CaCl2, 0.33 mM Ca(NO3)2, 0.82 mM MgSO4, 10 mM HEPES, 100 U penicillin—100 μg streptomycin/ml, pH 7.6).
Standard two-electrode voltage-clamp measurements were performed at room temperature 2-4 days after injection using a Turbotec 05 amplifier (npi instruments, Tamm, Germany) and pClamp 5.5 software (Axon Instruments). Currents were usually recorded in ND98 solution (see Table 2). Linopirdine (RBI, Natick, Mass.) was prepared as a 100 mM stock solution in DMSO and added to a final concentration of 200 μM to ND98.
To determine the voltage dependence of apparent open probability, oocytes were clamped for 2 seconds to values between −80 mV to +40 mV, in 10 mV steps, followed by a constant −30 mV test pulse. Tail currents extrapolated to t=0 were obtained from a mono-exponential fit, normalised to the value at 0 mV and used for the analysis of apparent popen. Data analysis used PClamp6 and Microcal Origin 5.0.

T1 sequence (Q9NR82 36-932): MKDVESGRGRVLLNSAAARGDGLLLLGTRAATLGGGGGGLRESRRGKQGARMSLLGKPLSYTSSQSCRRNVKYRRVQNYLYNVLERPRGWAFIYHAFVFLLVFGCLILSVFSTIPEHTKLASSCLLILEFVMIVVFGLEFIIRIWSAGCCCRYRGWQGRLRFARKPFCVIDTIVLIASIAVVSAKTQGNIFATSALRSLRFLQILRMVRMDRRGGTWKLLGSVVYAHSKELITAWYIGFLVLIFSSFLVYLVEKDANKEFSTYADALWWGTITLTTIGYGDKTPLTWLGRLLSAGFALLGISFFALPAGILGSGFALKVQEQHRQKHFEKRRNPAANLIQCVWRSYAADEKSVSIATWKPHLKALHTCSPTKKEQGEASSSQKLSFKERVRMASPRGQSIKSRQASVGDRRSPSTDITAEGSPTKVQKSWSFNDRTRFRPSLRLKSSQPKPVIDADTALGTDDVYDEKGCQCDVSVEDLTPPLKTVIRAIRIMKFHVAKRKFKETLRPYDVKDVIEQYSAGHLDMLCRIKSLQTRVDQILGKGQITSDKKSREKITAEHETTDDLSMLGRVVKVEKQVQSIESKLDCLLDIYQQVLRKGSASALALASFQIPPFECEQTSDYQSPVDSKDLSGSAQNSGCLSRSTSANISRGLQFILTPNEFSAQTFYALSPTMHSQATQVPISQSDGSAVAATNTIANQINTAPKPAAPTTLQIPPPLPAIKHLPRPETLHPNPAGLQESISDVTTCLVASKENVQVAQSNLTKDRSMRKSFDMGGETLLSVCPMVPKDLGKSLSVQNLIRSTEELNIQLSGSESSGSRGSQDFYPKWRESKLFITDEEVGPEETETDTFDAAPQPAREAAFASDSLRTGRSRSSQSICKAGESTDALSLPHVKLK

Turning to `[Ba+2]` [Ba^++], under “5 mM”, the “inhibition of KCNQ5 currents” value was “more than 80%”. Turning to `O=C(O)c1cccnc1Nc1cccc(C(F)(F)F)c1` [Niflumic acid, niflumic acid], under “500 μM niflumic acid (FIG. 5B)”, the “shift of voltage dependence of apparent popen towards negative potentials” value is reported as “about 20 mV”.

Regarding `O=C1c2ccccc2C(Cc2ccncc2)(Cc2ccncc2)c2ccccc21` [XE991, 10,10-bis-(4-pyridinyl-methyl)-9-(10H)-antracenone], the IC50 (extracellular application, Xenopus oocytes, from fit curves (FIG. 5A), read-out: IC50, inhibition of KCNQ5 homomers) was found to be 65 ± 4 µM.
